Positions count from the first letter of the chain named. Values joined by “and” are separate entries in the source; they are usually repeats but may differ in a detail not shown here. Equal values may be shown once. Residues, ends and D or L forms follow the SMILES beside them.
Tests used:
[1] = biological target: T1, Protachykinin-1 (Rattus norvegicus, UniProt P06767)
T1 sequence (P06767 whole entry): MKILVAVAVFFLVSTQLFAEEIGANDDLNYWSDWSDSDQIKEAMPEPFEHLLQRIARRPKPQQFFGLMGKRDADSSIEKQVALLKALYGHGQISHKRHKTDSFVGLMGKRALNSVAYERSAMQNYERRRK

[2] = biological target: T2, Protachykinin-1 (Mus musculus, UniProt P41539)
T2 sequence (P41539 whole entry): T1 sequence (P06767 whole entry) with G23D, I77V

[3] = biological target: T3, Substance-K receptor (Cavia porcellus, UniProt Q64077)
T3 sequence (Q64077 whole entry): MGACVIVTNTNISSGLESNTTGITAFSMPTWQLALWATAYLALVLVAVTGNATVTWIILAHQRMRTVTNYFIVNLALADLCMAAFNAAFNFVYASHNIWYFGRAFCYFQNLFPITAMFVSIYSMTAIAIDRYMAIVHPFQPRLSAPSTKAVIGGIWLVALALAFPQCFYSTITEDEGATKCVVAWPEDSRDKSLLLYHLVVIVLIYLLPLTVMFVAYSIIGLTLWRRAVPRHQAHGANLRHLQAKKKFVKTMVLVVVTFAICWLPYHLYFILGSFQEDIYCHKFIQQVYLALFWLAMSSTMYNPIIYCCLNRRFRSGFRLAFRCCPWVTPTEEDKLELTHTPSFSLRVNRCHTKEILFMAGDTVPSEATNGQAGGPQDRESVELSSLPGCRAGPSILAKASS

[4] = biological target: Eledoisin (Eledone moschata, UniProt P62934)
[5] = biological target: Class E basic helix-loop-helix protein 22 (Mus musculus, UniProt Q8C6A8)
[6] = biological target: Substance P (Cavia porcellus, UniProt P67932)
[7] = biological target: T4, ATP synthase subunit a (Rattus norvegicus, UniProt P05504)
T4 sequence (P05504 whole entry): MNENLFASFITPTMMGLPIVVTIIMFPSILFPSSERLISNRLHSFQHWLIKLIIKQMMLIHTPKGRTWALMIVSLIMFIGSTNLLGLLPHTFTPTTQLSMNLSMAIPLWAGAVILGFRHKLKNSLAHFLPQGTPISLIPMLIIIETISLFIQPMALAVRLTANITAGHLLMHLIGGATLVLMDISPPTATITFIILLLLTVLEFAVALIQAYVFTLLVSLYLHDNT

Class E basic helix-loop-helix protein 22, sequence (Q8C6A8 whole entry): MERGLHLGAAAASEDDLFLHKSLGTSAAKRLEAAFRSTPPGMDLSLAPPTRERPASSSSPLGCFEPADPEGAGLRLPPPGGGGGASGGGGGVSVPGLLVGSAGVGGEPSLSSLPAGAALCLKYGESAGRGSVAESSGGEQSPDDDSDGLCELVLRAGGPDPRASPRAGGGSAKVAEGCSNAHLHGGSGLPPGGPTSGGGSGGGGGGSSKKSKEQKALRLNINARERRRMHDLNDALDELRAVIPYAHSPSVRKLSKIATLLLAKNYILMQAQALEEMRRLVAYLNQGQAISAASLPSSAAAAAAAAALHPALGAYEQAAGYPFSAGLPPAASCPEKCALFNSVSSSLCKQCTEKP

Compound | Ki [1] | Ki [2] | Ki [3] | Ki [4] | Ki [5] | Ki [6] | Ki [7]
CSCC[C@H](NC(=O)[C@H](CC(C)C)NC(=O)CNC(=O)[C@@H](NC(=O)[C@H](Cc1ccccc1)NC(=O)[C@H](CO)NC(=O)[C@H](CC(=O)O)NC(=O)[C@@H](NC(=O)[C@H](CCCCN)NC(=O)[C@@H](N)Cc1cnc[nH]1)[C@@H](C)O)C(C)C)C(N)=O [Neurokinin alpha] | 1.3 nM and 4.6 nM | 1 nM and 4 nM | 1.3 nM | 10 nM | 0.5 nM | 8 nM | –
CC[C@H](C)[C@H](NC(=O)[C@H](Cc1ccccc1)NC(=O)[C@H](C)NC(=O)[C@H](CC(=O)O)NC(=O)[C@H](CCCCN)NC(=O)[C@H](CO)NC(=O)[C@@H]1CCCN1C(=O)[C@@H]1CCC(=O)N1)C(=O)NCC(=O)N[C@@H](CC(C)C)C(=O)N[C@@H](CCSC)C(N)=O (HELM PEPTIDE1{[Glp].P.S.K.D.A.F.I.G.L.M.[am]}$$$$V2.0) | 16 nM and 9 nM | 9 nM and 5 nM | 15 nM | 2.2 nM | – | 9 nM | 4.2 nM and 3 nM
CSCC[C@H](NC(=O)[C@H](CC(C)C)NC(=O)CNC(=O)[C@H](Cc1ccc(O)cc1)NC(=O)[C@H](Cc1ccccc1)NC(=O)[C@H](CCCCN)NC(=O)[C@H](CC(N)=O)NC(=O)[C@@H]1CCCN1C(=O)[C@H](CC(=O)O)NC(=O)[C@H](C)NC(=O)[C@@H]1CCC(=O)N1)C(N)=O [physalaemin] (HELM PEPTIDE1{[Glp].A.D.P.N.K.F.Y.G.L.M.[am]}$$$$V2.0) | – | 175 nM | 340 nM | 14 nM | 17 nM | 0.7 nM | 23 nM and 30 nM
CSCC[C@H](NC(=O)[C@H](CC(C)C)NC(=O)CNC(=O)[C@@H](NC(=O)[C@H](Cc1ccccc1)NC(=O)[C@H](Cc1ccccc1)NC(=O)[C@H](CC(=O)O)NC(=O)[C@H](Cc1c[nH]cn1)NC(=O)[C@H](CCSC)NC(=O)[C@@H](N)CC(=O)O)C(C)C)C(N)=O [NSC_5311312] | 50 nM and 56 nM | 20 nM and 80 nM | 200 nM | 17 nM | 10 nM | 35 nM | 4.7 nM and 6 nM
CSCC[C@H](NC(=O)[C@H](CC(C)C)NC(=O)CNC(=O)[C@H](Cc1ccccc1)NC(=O)[C@H](Cc1ccccc1)NC(=O)[C@H](CCC(N)=O)NC(=O)[C@H](CCC(N)=O)NC(=O)[C@@H]1CCCN1C(=O)[C@H](CCCCN)NC(=O)[C@@H]1CCCN1C(=O)[C@@H](N)CCCN=C(N)N)C(N)=O [Arg-Pro-Lys-Pro-Gln-Gln-Phe-Phe-Gly-Leu-Met NH2] | – | – | 200 nM | 19 nM | 47 nM | 0.2 nM | 106 nM and 21 nM
H-DVPKSDQFVGLM-NH2 [CAS_45749] | 6 nM and 9 nM | 7 nM | 11 nM | 2.6 nM | 0.5 nM | 9 nM | 4.1 nM and 1.9 nM

From BindingDB's records for PubMed 2419545 (National Institutes of Health, 1986)
